Experimental data from US5571892A, “Polypeptide and anti-HIV drug prepared therefrom” (priority 1990, dated 1996).
Values after ≈ are worked out from the molar mass of the structure shown. Where a SMILES comes first, the peptide text is derived from it.

Key:
MT-4 cells = assay: Cytotoxicity on virus-non-infected MT-4 cells (MTT method); assay type: cell-based; settings: for CC 50 (50% cytotoxic concentration): Table 2, virus-non-infected MT-4 cells, 5 days, MTT method
[1] = tested on: human immunodeficiency virus (HIV); settings: for EC 50 (concentration at which cellular affection due to HIV infection is 50% inhibited): HIV-infected MT-4 cells, MOI 0.001, 5 days, MTT method; for Anti-HIV activity SI / Anti-HIV activity EC50: Table 3; for Anti-HIV activity SI: CC50/EC50; for Anti-HIV activity EC50: tested likewise in Example 2, HIV-infected MT-4 cells
Method: HIV-infected MT-4 cells (2.5×10^4 cells/well, multiplicity of infection (MOI): 0.001) immediately after the infection are added together with a test substance with various changes of the concentration to a 96-well microtiter plate. After incubation at […] for 5 days in a CO2 incubator, the number of survivor cells is measured by the MTT method [Pauwels et al.; J. Virol. Methods, 20, 309-321 (1988)]. […] On the other hand, in order to know the cytotoxicity of the test substance on the MT-4 cells, virus-non-infected cells are incubated, likewise as above, together with the test compound with various changes of the concentration. […] Further, the rough ratio of CC 50 to EC 50 (CC 50/EC 50) is expressed as an effective ratio (SI).

Molecule	Cytotoxicity compared with Tachyplesin I (MT-4 cells; MT-4 cells, Table 2 data)	CC 50 (50% cytotoxic concentration) (MT-4 cells) [µg/mL]	CC 50 relative to azidothymidine (times higher) (MT-4 cells; compared with azidothymidine, Table 2 data) [times]	EC 50 (concentration at which cellular affection due to HIV infection is 50% inhibited) ([1]; Table 2) [µg/mL]	SI (effective ratio, CC 50/EC 50) ([1]; Table 2, rough ratio of CC 50 to EC 50)	Anti-HIV activity SI [1]	Anti-HIV activity EC50 [1] [µg/mL]	Concentration for antiviral activity relative to Tachyplesin I ([1]; compared with Tachyplesin I, Table 2 data)
CC[C@H](C)[C@@H]1NC(=O)CNC(=O)[C@H](CCCNC(=N)N)NC(=O)[C@H](Cc2ccc(O)cc2)NC(=O)[C@@H]2CSSC[C@H](NC1=O)C(=O)N[C@@H](Cc1ccc(O)cc1)C(=O)N[C@@H](CCCNC(=N)N)C(=O)N[C@@H](CCCCN)C(=O)N[C@H](C(=O)N[C@@H](CCCNC(=N)N)C(N)=O)CSSC[C@H](NC(=O)[C@H](Cc1c[nH]c3ccccc13)NC(=O)[C@@H](N)CCCNC(=N)N)C(=O)N[C@@H](Cc1ccc(O)cc1)C(=O)N[C@@H](CCCNC(=N)N)C(=O)N[C@@H](CCCCN)C(=O)N2 [Polypeptide (A)] (HELM PEPTIDE1{R.W.C.Y.R.K.C.Y.R.G.I.C.Y.R.K.C.R.[am]}$PEPTIDE1,PEPTIDE1,3:R3-16:R3|PEPTIDE1,PEPTIDE1,7:R3-12:R3$$$V2.0; N-terminus assumed)	somewhat stronger cytotoxicity	39 (≈ 16.9 µM)	60	0.35 (≈ 0.152 µM)	110	1144	0.039	1/50
(1): polypeptide of the invention, SEQ ID NO: 2, shown only as drawing (WCYRKCYRGICYRKCR)						30	6.9	
[H][C@]12CSSC[C@]([H])(NC(=O)[C@]([H])([C@@H](C)CC)NC(=O)CNC(=O)[C@H](CCCNC(=N)N)NC(=O)[C@H](Cc3ccc(O)cc3)NC1=O)C(=O)N[C@@H](Cc1ccc(O)cc1)C(=O)N[C@@H](CCCNC(=N)N)C(=O)N[C@@H](CCCNC(=N)N)C(=O)N[C@H](C(=O)N[C@@H](CCCNC(=N)N)C(N)=O)CSSC[C@H](NC(=O)[C@H](Cc1c[nH]c3ccccc13)NC(=O)[C@@H](N)CCCCN)C(=O)N[C@@H](Cc1ccccc1)C(=O)N[C@@H](CCCNC(=N)N)C(=O)N[C@@H](C(C)C)C(=O)N2 [Tachyplesin I, reference compound] (HELM PEPTIDE1{K.W.C.F.R.V.C.Y.R.G.I.C.Y.R.R.C.R.[am]}$PEPTIDE1,PEPTIDE1,3:R3-16:R3|PEPTIDE1,PEPTIDE1,7:R3-12:R3$$$V2.0; N-terminus and C-terminus assumed; bridges inferred)		49 (≈ 21.6 µM)		18.1 (≈ 8 µM)				
